Data from US10925855B2, “Compositions comprising water dispersible nanoparticles of a retinoid compound” (GALDERMA RESEARCH & DEVELOPMENT, priority 2015, dated 2021).

Key:
[1] = Stabilizer screening (colloid stability after precipitation); format: physicochemical; settings: Compound A 1.0 mg; for Observation: Stable for: at RT
Description: If the colloid solution was stable over 2 hours (no aggregation, sedimentation, crystal forming), and no aggregation occurred, the sample was lyophilized. • If precipitation occurred, however the colloid solution was not stable over the whole solid formulation procedure, other stabilizers were tested. Results

[2] = Redispersibility in water; format: physicochemical; settings: addition of water at room temperature

## CC(C)(C)c1cc(-c2cc(-c3ccc(C(=O)O)cc3)ccc2OCCO)ccc1N1CCCC1 [Compound A, 3″-tert-butyl-4′-(2-hydroxyethoxy)-4″-pyrrolidin-1-yl[1,1′;3′,1″]-terphenyl-4-carboxylic acid]
[1]; 2 mg PVP10, 1 mL IPA, 4 mL water
  Observation: Aggregated
[1]; 2 mg PVP10, 1 mL MeOH, 4 mL water
  Observation: Precipitation did not occur
[1]; 2 mg PVP40, 1 mL EtOH, 4 mL water
  Observation: Colloid, Stable for: Colloid, Stable for 15 min
[1]; 2 mg PVP40, 1 mL EtOH, 7 mL 0.05 mg/mL BAC solution
  Observation: Aggregated immediately
[1]; 2 mg PVP40, 1 mL EtOH, 7 mL 0.05 mg/mL DSS solution
  Observation: Aggregated immediately
[1]; 2 mg PVP40, 1 mL EtOH, 7 mL 0.05 mg/mL Mannitol solution
  Observation: Aggregated immediately
[1]; 2 mg PVP40, 1 mL EtOH, 7 mL 0.05 mg/mL NaOAc solution
  Observation: Aggregated immediately
[1]; 2 mg PVP40, 1 mL EtOH, 7 mL 0.05 mg/mL SDS solution
  Observation: Aggregated immediately
[1]; 2 mg PVP40, 1 mL EtOH, 7 mL 0.05 mg/mL citric acid solution
  Observation: Aggregated immediately
[1]; 2 mg PVP40, 1 mL EtOH, 7 mL 0.5 mg/mL BAC solution
  Observation: Aggregated immediately
[1]; 2 mg PVP40, 1 mL EtOH, 7 mL 0.5 mg/mL DSS solution
  Observation: Aggregated within: Aggregated within 1 hour
[1]; 2 mg PVP40, 1 mL EtOH, 7 mL 0.5 mg/mL Mannitol solution
  Observation: Aggregated immediately
[1]; 2 mg PVP40, 1 mL EtOH, 7 mL 0.5 mg/mL NaOAc solution
  Observation: Aggregated within: Aggregated within 1 hour
[1]; 2 mg PVP40, 1 mL EtOH, 7 mL 0.5 mg/mL SDS solution
  Observation: Aggregated within: Aggregated within 1 hour
[1]; 2 mg PVP40, 1 mL EtOH, 7 mL 0.5 mg/mL citric acid solution
  Observation: Aggregated immediately
[1]; 2 mg PVP40, 1 mL IPA, 4 mL water
  Observation: Aggregated
[1]; 2 mg PVP40, 1 mL MeOH, 4 mL water
  Observation: Precipitation did not occur
[1]; 2 mg PVPK90, 1 mL EtOH, 4 mL water
  Observation: Colloid, Stable for: Colloid, Stable for 5 min
[1]; 2 mg PVPK90, 1 mL IPA, 4 mL water
  Observation: Aggregated
[1]; 2 mg PVPK90, 1 mL MeOH, 4 mL water
  Observation: Precipitation did not occur
[1]; 2 mg Pluronic PE6800, 1 mL ACE, 4 mL water
  Observation: Aggregated immediately
[1]; 2 mg Pluronic PE6800, 1 mL EtOH, 4 mL water
  Observation: Aggregated
[1]; 2 mg Pluronic PE6800, 1 mL IPA, 4 mL water
  Observation: Aggregated
[1]; 2 mg Pluronic PE6800, 1 mL MeOH, 4 mL water
  Observation: Cloudy immediately
[1]; 2 mg Pluronic PE6800, 1 mL THF, 5 mL water
  Observation: Aggregated
[1]; 2 mg Pluronic PE10500, 1 mL ACE, 4 mL water
  Observation: Aggregated immediately
[1]; 2 mg Pluronic PE10500, 1 mL EtOH, 4 mL water
  Observation: Aggregated
[1]; 2 mg Pluronic PE10500, 1 mL IPA, 4 mL water
  Observation: Aggregated
[1]; 2 mg Pluronic PE10500, 1 mL MeOH, 4 mL water
  Observation: Cloudy immediately
[1]; 2 mg Pluronic PE10500, 1 mL THF, 4 mL water
  Observation: Aggregated
[1]; 2 mg Soluplus, 1 mL ACE, 4 mL water
  Observation: Aggregated within: Aggregated within 5 min
[1]; 2 mg Soluplus, 1 mL EtOH, 4 mL water
  Observation: Slightly opalescent colloid, stable for: stable for 5 min
[1]; 2 mg Soluplus, 1 mL MeOH, 4 mL water
  Observation: Precipitation did not occur
[1]; 2 mg Soluplus, 1 mL THF, 4 mL water
  Observation: Aggregated
[1]; 2 mg Solutol, 1 mL ACE, 4 mL water
  Observation: Aggregated immediately
[1]; 2 mg Solutol, 1 mL EtOH, 4 mL water
  Observation: Aggregated
[1]; 2 mg Solutol, 1 mL IPA, 4 mL water
  Observation: Aggregated
[1]; 2 mg Solutol, 1 mL MeOH, 4 mL water
  Observation: Aggregated
[1]; 2 mg Solutol, 1 mL THF, 4 mL water
  Observation: Aggregated
[1]; 2 mg TPGS, 1 mL ACE, 4 mL water
  Observation: Aggregated within: Aggregated within 5 min
[1]; 2 mg TPGS, 1 mL EtOH, 4 mL water
  Observation: Aggregated
[1]; 2 mg TPGS, 1 mL IPA, 4 mL water
  Observation: Aggregated
[1]; 2 mg TPGS, 1 mL MeOH, 4 mL water
  Observation: Aggregated after: Aggregated after 25 min
[1]; 2 mg TPGS, 1 mL THF, 4 mL water
  Observation: Aggregated
[1]; 2 mg Tetronic, 1 mL ACE, 4 mL water
  Observation: Aggregated immediately
[1]; 2 mg Tetronic, 1 mL EtOH, 4 mL water
  Observation: Aggregated
[1]; 2 mg Tetronic, 1 mL IPA, 4 mL water
  Observation: Aggregated
[1]; 2 mg Tetronic, 1 mL MeOH, 4 mL water
  Observation: Cloudy immediately
[1]; 2 mg Tetronic, 1 mL THF, 4 mL water
  Observation: Aggregated
[1]; 3 mg Luviskol VA64, 1 mL EtOH, 0.0001M NaOH solution
  Observation: Aggregated within: Aggregated within 1 day
[1]; 3 mg Luviskol VA64, 1 mL EtOH, 0.001M NaOH solution
  Observation: Stable for: Stable for 3 days at RT
[1]; 3 mg Luviskol VA64, 1 mL EtOH, 0.01M NaOH solution
  Observation: Stable for: Stable for 3 days at RT
[1]; 3 mg Luviskol VA64, 1 mL EtOH, 0.1M NaOH solution
  Observation: Stable for: Stable for 3 days at RT
[1]; 3 mg Luviskol VA64, 1 mL EtOH, 7 mL 0.05 mg/mL NaOAc solution
  Observation: Aggregated immediately
[1]; 3 mg Luviskol VA64, 1 mL EtOH, 7 mL 0.5 mg/mL NaOAc solution
  Observation: Stable for: Stable for 3 days at RT
[1]; 3 mg PVP10, 1 mL EtOH, 7 mL 0.05 mg/mL NaOAc solution
  Observation: Aggregated immediately
[1]; 3 mg PVP10, 1 mL EtOH, 7 mL 0.5 mg/mL NaOAc solution
  Observation: Aggregated within: Aggregated within 1 hour
[1]; 3 mg PVP40, 1 mL EtOH, 7 mL 0.05 mg/mL NaOAc solution
  Observation: Aggregated immediately
[1]; 3 mg PVP40, 1 mL EtOH, 7 mL 0.5 mg/mL NaOAc solution
  Observation: Stable for: Stable for 1 day at RT
[1]; 4 mg Luviskol VA64, 1 mL EtOH, 7 mL 0.05 mg/mL NaOAc solution
  Observation: Aggregated immediately
[1]; 4 mg Luviskol VA64, 1 mL EtOH, 7 mL 0.5 mg/mL NaOAc solution
  Observation: Aggregated within: Aggregated within 1 day
[1]; 4 mg PVP10, 1 mL EtOH, 7 mL 0.05 mg/mL NaOAc solution
  Observation: Aggregated immediately
[1]; 4 mg PVP10, 1 mL EtOH, 7 mL 0.5 mg/mL NaOAc solution
  Observation: Aggregated within: Aggregated within 1 hour
[1]; 4 mg PVP40, 1 mL EtOH, 7 mL 0.05 mg/mL NaOAc solution
  Observation: Aggregated immediately
[1]; 4 mg PVP40, 1 mL EtOH, 7 mL 0.5 mg/mL NaOAc solution
  Observation: Aggregated within: Aggregated within 1 day
[1]; no stabilizer (—), 1 mL ACE, 4 mL water
  Observation: Aggregated
[1]; no stabilizer (—), 1 mL EtOH, 4 mL water
  Observation: Aggregated
[1]; no stabilizer (—), 1 mL IPA, 4 mL water
  Observation: Aggregated
[1]; no stabilizer (—), 1 mL MeOH, 4 mL water
  Observation: Aggregated
[2]
  Redispersibility: not wetted by water
